The subject of assay [1] is Rag2-/- host mice. Briefly: T cell transfer enteritis (IBD) model: naive CD4+ T cells transferred into Rag2-/- mice, GSSSG administered intraperitoneally. In kind it is in vivo. The source says: CD4^+ T cells were magnetically sorted from splenocytes of young mice (from 8 to 12 weeks old). Then, naive CD4^+ T cells (CD3^+ CD4^+ CD25^- CD44^lo CD62L^hi or CD3^+ CD4^+ Foxp3-RFP^- CD44^lo CD62L^hi) were sorted using FACS AriaII (BD Bioscience) based on fluorescently labeled monoclonal antibodies or reporter fluorescent proteins. In experiments to confirm homeostatic maintenance proliferation, naive CD4^+ T cells were labeled with carboxyfluorescein succinimidyl ester (CFSE) (Thermo Fisher Scientific), and were injected into the tail veins of CD45.1 host mice irradiated with a sublethal dose (5.5 Gy), at 1 × 10^6 cells per mouse 1 day before transfer. In experiments to induce enteritis, wild-type or Cars2^+/- naive CD4^+ T cells were injected into the tail veins of Rag2^-/- mice at 3 × 10^5 cells per mouse. In experiments to evaluate the function of regulatory T cells, Cars2^+/+ naive CD4^+ T cells were co-transferred with regulatory T cells derived from Cars2^+/- Foxp3-RFP reporter mice (1 × 10^5 cells/mouse). In GSSSG administration experiments, GSSSG (400 nmol/mouse) was intraperitoneally administered to the Rag2^-/- host mice every day from the same day as the day when the naive CD4^+ T cells were transferred.
At the stage where from 3 to 4 weeks had elapsed after the transfer of the naive T cells, the large intestines of the Rag2^-/- host mice were collected and fixed with 10% formalin. After the fixed samples were embedded in paraffin, 5-µm-thick sections were cut out and subjected to hematoxylin-eosin staining (H & E) and immunostaining with a CD4 monoclonal antibody (mAb) (EPR19514). The histological inflammation score was classified into three groups with reference to a previous report (Biswas et al., Nat Commun 9, 1779 (2018)).
Therefore, using the same IBD model, wild-type and Cars2+/- naive CD4+ T cells were adoptively transferred to Rag2-/- mice, and the properties of the donor cells and the IBD pathological conditions of the host mice were observed over time. […] Since there was no significant difference in proportion of dead cells between the two groups (FIGS. 4F, 5C, and 5F), the reason for the increase in number of accumulated cytokine-producing Cars2+/- T cells is considered to be enhanced homeostatic maintenance proliferation of the donor cells.
To confirm whether CARS2 suppresses the proliferation of enteritis pathogenic T cells via active sulfur, GSSSG, which is a donor of an active sulfur molecule, was administered to Rag2-/- host mice, and as a result, the body weight loss of the individuals transplanted with Cars2+/- CD4+ T cells was suppressed, and the reduction in histological enteritis images was observed (FIGS. 8A to 8C).

In assay [2] the test system is HDM-treated mice. Briefly: HDM-induced mouse asthma model (type 2 airway inflammation), intraperitoneal GSSSG. In kind it is in vivo. Here is the method: Asthma model mice were created according to a previous report (Ishii et al., Scandinavian journal of immunology. 2018; 87 (3)). Specifically, as shown in the FIG. 5A, mice were intranasally administered with HDM extract (at the indicated doses in PBS) under isoflurane anesthesia to induce asthma.
Twenty four (24) hours after the last dose of HDM, the mice were anesthetized and sacrificed by exsanguination. The alveoli were washed three times with 500 µL of 10 mM PBS, and the bronchial alveolar lavage fluid (BALF) was collected. For 5 minutes, […], then the supernatant was stored for biochemical analysis, and the cellular pellet was resuspended in 500 µL of 10 mM PBS. The total number of cells was counted using a Scepter handheld automated cell counter (Millipore), followed by cytospin specimen preparation and staining with Diff-Quick (Sysmex) or Eosinostain-Torii (Torii Pharmaceutical).
Isolation of cells from mouse lung tissue and FCM were performed according to previous reports (Gomez et al., American journal of respiratory cell and molecular biology. 2015; 52 (3): 349-64., and Yamada et al., American journal of respiratory and critical care medicine. 2011; 183 (10): 1391-401.). For histological examination of lung inflammation, lung sections were stained with hematoxylin and eosin (HE). Lung inflammation was semi-quantified and evaluated according to a previous report.
It was investigated whether intraperitoneal administration of GSSSG in vivo suppresses an HDM-induced type 2 airway inflammation. […] Thus, GSSSG has therapeutic potential in CD4 T cell-mediated type 2 inflammatory diseases, including asthma, by organizing TCR signaling.

The test system of assay [3] is human CD4+ T cells. The assay can be described thus: Cell cycle analysis of human naive CD4+ T cells stimulated with CD3/CD28 in the presence or absence of GSSSG. As to conditions: naive CD4+ T cells from peripheral bloods of healthy individuals; CD3/CD28 stimulation; GSSSG 1 µM; 48 hours; FIG. 10E. In kind it is cell-based. Here is the method: Peripheral mononuclear blood cells were isolated using Vacutainer (BD Bioscience), and naive CD4^+ T cells (CD3^+ CD4^+ CD25^- CD45RO^- CD45RA^+) were purified from the isolated mononuclear cells using FACS AriaII (BD Bioscience). The purified naive CD4^+ T cells were seeded in a 96-well plate at 5 × 10^4 cells per well, and stimulated with Dynabeads™ Human T-Activator CD3/CD28 (Thermo Fischer Scientific) in an RPMI medium (10% FCS) in the presence or absence of GSSSG (1 µM) for 48 hours.
Finally, the involvement of active sulfur in the regulation of the proliferation of human CD4+ T cells was examined through in vitro cell culture. Specifically, naive CD4+ T cells purified from peripheral bloods of healthy individuals were stimulated with CD3/CD28 in the presence and absence of GSSSG to induce the proliferative response, and the cell cycle was analyzed 48 hours after the stimulation. […] Thus, it was shown that CARS2-dependent active sulfur metabolism also suppresses the cell cycle entry also in human CD4+ T cells and limits the proliferation of the same cells.

The results in this text go back to patent EP4678179A1, “PHARMACEUTICAL COMPOSITION CONTAINING ACTIVE SULFUR MOLECULE” (Tohoku University, priority 2023, dated 2024).

In the case of `N[C@@H](CCC(=O)N[C@@H](CSSSC[C@H](NC(=O)CC[C@H](N)C(=O)O)C(=O)NCC(=O)O)C(=O)NCC(=O)O)C(=O)O` [GSSSG, glutathione trisulfide], in assay [1] (Rag2-/- host mice transfused with wild-type CD4+ T cells, GSSSG 400 nmol/mouse intraperitoneally every day, FIGS. 9A to 9C), the therapeutic effect entry is given as “no significant therapeutic effect”. In addition, the body weight loss result in assay [1] (Rag2-/- host mice transplanted with Cars2+/- CD4+ T cells, GSSSG 400 nmol/mouse intraperitoneally every day, FIG. 8A) is on record as “suppressed”. In addition, the histological enteritis images entry in assay [1] (Rag2-/- host mice transplanted with Cars2+/- CD4+ T cells, GSSSG 400 nmol/mouse intraperitoneally every day, large intestine, H & E and CD4 immunostaining, FIGS. 8B, 8C) is listed as “reduction”. In assay [1] (figure legend of FIG. 8, administration of GSSSG to host mice), the “enteritis induced by Cars2+/- CD4+ T cells” value is “improved”. The “accumulation of inflammatory cells, particularly eosinophils, in the airways” value in assay [2] (both Cars2+/- mice and WT mice, HDM-treated, 1 mM GSSSG intraperitoneal, BALF, FIG. 14E) was “significantly suppressed”. The lung inflammation result in assay [2] (both HDM-treated Cars2+/- mice and HDM-treated WT mice, GSSSG treatment, HE-stained lung tissue, FIG. 14F) is reported as “significantly reduced”. Besides, in assay [2] (both HDM-treated Cars2+/- mice and HDM-treated WT mice, GSSSG treatment, PAS-stained lung tissue, FIG. 14G), the goblet cell hyperplasia result is given as “significantly reduced”. The “cell cycle entry of the naive CD4+ T cells” value in assay [3] was “significantly suppressed”.
